Data as given in ChEMBL document CHEMBL5380875, “Discovery of a Potent and Oral Available Complex I OXPHOS Inhibitor That Abrogates Tumor Growth and Circumvents MEKi Resistance” (J Med Chem, 2023).
Activity calls are given as the source filed them. The calls are words filed in the database; no cut-off is given here.

Columns and labels:
A549 [1] = experiment: Inhibition of mitochondrial respiration in human Trametinib-resistant A549 cell assessed as reduction in spare oxygen consumption rate capacity at 50 to 200 nM incubated for 12 hrs by seahorse XF96 flux analyzer; assay type: functional, cell-based; conditions: dose 50-200 nM
A549 [2] = experiment: Inhibition of mitochondrial respiration in human Trametinib-resistant A549 cell assessed as reduction in maximal oxygen consumption rate at 50 to 200 nM incubated for 12 hrs by seahorse XF96 flux analyzer; assay type: functional, cell-based; conditions: dose 50-200 nM
A549 [3] = experiment: Inhibition of mitochondrial respiration in human Trametinib-resistant A549 cell assessed as reduction in basal oxygen consumption rate at 50 to 200 nM incubated for 12 hrs by seahorse XF96 flux analyzer; assay type: functional, cell-based; conditions: dose 50-200 nM
NCI-H460 [4] = experiment: Inhibition of mitochondrial complex I NADH-ubiquinone oxidoreductase in human NCI-H460 cells at 1 uM incubated for 12 hrs by seahorse XF96 metabolic flux analyzer relative to control; assay type: cell-based
NCI-H460 [5] = experiment: Inhibition of mitochondrial complex I NADH-ubiquinone oxidoreductase in human NCI-H460 cells assessed as reduction in NAD+/NADH ratio at 1 uM incubated for 12 hrs by WST-8 method relative to control; assay type: cell-based
NCI-H441 [6] = experiment: Antiproliferative activity against human NCI-H441 cells with high-OXPHOS assessed as reduction in cell viability incubated for 5 days by CellTiter 96 cell proliferation assay; assay type: functional, cell-based; conditions: NCI-H441, 120 h
NCI-H460 [7] = experiment: Inhibition of colony formation in human NCI-H460 cells with high-OXPHOS incubated for 7 days by crystal violet staining based analysis; assay type: functional, cell-based; conditions: dose 250-1000 nM, time 7.0 day
NCI-H441 [8] = experiment: Inhibition of colony formation in human NCI-H441 cells with high-OXPHOS incubated for 7 days by crystal violet staining based analysis; assay type: functional, cell-based; conditions: dose 250-1000 nM, time 7.0 day
NCI-H441 [9] = experiment: Inhibition of mitochondrial respiration in human NCI-H441 cells with high-OXPHOS assessed as reduction in maximal oxygen consumption rate incubated for 12 hrs by seahorse XF96 flux analyzer; assay type: functional, cell-based; conditions: dose 50-200 nM
NCI-H441 [10] = experiment: Inhibition of mitochondrial respiration in human NCI-H441 cells with high-OXPHOS assessed as reduction in spare oxygen consumption rate capacity incubated for 12 hrs by seahorse XF96 flux analyzer; assay type: functional, cell-based; conditions: dose 50-200 nM
Cytochrome P450 1A2 = molecular target: T1, Cytochrome P450 1A2 (Homo sapiens, UniProt P05177); experiment: Inhibition of CYP1A2 in human liver microsomes; assay type: ADME, Microsome
T1 sequence (P05177 whole entry): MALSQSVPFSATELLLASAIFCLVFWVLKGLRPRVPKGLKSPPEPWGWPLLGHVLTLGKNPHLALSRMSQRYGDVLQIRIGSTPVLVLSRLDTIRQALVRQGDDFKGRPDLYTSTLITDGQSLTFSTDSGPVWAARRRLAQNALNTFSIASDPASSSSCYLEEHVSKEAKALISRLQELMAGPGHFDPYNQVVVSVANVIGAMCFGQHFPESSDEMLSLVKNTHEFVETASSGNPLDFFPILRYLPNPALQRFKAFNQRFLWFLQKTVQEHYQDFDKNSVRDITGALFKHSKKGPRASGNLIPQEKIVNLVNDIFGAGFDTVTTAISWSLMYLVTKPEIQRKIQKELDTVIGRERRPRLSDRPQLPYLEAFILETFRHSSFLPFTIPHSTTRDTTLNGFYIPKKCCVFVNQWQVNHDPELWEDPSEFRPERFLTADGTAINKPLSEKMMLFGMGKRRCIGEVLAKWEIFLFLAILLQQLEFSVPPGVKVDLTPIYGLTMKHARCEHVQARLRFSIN

Cytochrome P450 2D6 = Cytochrome P450 2D6 (Homo sapiens, UniProt P10635); experiment: Inhibition of CYP2D6 in human liver microsomes; assay type: ADME, Microsome
Cytochrome P450 2D6, sequence (P10635 whole entry): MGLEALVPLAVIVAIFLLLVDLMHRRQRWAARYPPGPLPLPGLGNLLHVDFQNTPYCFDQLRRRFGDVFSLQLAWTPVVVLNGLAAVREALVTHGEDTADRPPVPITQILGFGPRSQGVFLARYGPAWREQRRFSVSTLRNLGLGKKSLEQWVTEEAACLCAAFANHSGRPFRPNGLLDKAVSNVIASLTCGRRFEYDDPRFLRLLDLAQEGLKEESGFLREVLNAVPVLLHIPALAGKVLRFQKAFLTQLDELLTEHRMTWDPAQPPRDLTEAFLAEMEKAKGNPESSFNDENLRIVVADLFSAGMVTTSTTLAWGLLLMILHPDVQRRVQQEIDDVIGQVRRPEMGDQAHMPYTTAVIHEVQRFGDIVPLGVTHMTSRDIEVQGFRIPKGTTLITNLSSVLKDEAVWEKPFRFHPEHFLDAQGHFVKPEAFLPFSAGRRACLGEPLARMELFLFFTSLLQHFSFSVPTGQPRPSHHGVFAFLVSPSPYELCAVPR

[11] = Tmax in ICR mouse at 1 mg/kg, iv measured for 24 hrs by LC-MS/MS analysis; assay type: ADME, organism-based; conditions: in vivo
[12] = Cmax in ICR mouse at 1 mg/kg, iv measured for 24 hrs by LC-MS/MS analysis; assay type: ADME, organism-based; design: dose 1 mg/kg, time 24 hrs, route iv; conditions: in vivo
[13] = AUC (0 to 24 hrs) in ICR mouse at 1 mg/kg, iv measured for 24 hrs by LC-MS/MS analysis; assay type: ADME, organism-based; design: time 24 hrs, dose 1 mg/kg, route iv; conditions: in vivo
[14] = Apparent volume of distribution in ICR mouse at 1 mg/kg, iv measured for 24 hrs by LC-MS/MS analysis; assay type: ADME, organism-based; conditions: in vivo, read-out: Vz
[15] = MRT (0 to 24 hrs) in ICR mouse at 10 mg/kg, po measured for 24 hrs by LC-MS/MS analysis; assay type: ADME, organism-based; conditions: in vivo
[16] = Half life in ICR mouse at 10 mg/kg, po measured for 24 hrs by LC-MS/MS analysis; assay type: ADME, organism-based; conditions: in vivo
[17] = Oral bioavailability in ICR mouse at 10 mg/kg measured for 24 hrs by LC-MS/MS analysis; assay type: ADME, organism-based; conditions: in vivo
NCI-H460 [18] = experiment: Antitumor activity against human NCI-H460 cells with high-OXPHOS xenografted in mouse assessed as tumor growth inhibition at 30 mg/kg, po bid administered for 18 days and measured every 3 days by electronic caliper analysis; assay type: functional, organism-based; conditions: time 18.0 day
NCI-H460 [19] = experiment: Potentiation of trametinib-induced antitumor activity against human NCI-H460 cells with high-OXPHOS xenografted in mouse assessed as reduction in tumor volume at 30 mg/kg, po bid administered for 18 days and measured every 3 days by electronic caliper analysis; assay type: functional, organism-based; conditions: time 18.0 day
[20] = Toxicity in mouse xenografted with human NCI-H460 cells with high-OXPHOS assessed as reduction in serum AST level at 30 mg/kg, po bid administered for 18 days; assay type: organism-based; conditions: in vivo, 432 h, time 18 day
[21] = Toxicity in mouse xenografted with human NCI-H460 cells with high-OXPHOS assessed as pathological changes in lung at 30 mg/kg, po bid administered for 18 days by H and E staining based analysis; assay type: organism-based; conditions: in vivo, 432 h, time 18 day
[22] = Toxicity in mouse xenografted with human NCI-H460 cells with high-OXPHOS assessed as pathological changes in kidney at 30 mg/kg, po bid administered for 18 days by H and E staining based analysis; assay type: organism-based; conditions: in vivo, 432 h, time 18 day
[23] = Cytotoxicity against human HPNE cells assessed as reduction in cell viability incubated for 5 days by CellTiter 96 cell proliferation assay; assay type: toxicity, cell-based
[24] = Cytotoxicity against human MRC5 cells assessed as reduction in cell viability incubated for 5 days by CellTiter 96 cell proliferation assay; assay type: toxicity, cell-based
NCI-H460 [25] = experiment: Induction of apoptosis in human NCI-H460 cells with high-OXPHOS assessed as early apoptotic cells at 30 nM incubated for 48 hrs by Annexin V-FITC/propidium iodide staining based flow cytometry analysis (reference value: 3.55%); assay type: functional
NCI-H460 [26] = experiment: Induction of apoptosis in human NCI-H460 cells with high-OXPHOS assessed as late apoptotic cells at 30 nM incubated for 48 hrs by Annexin V-FITC/propidium iodide staining based flow cytometry analysis (reference value: 12.8%); assay type: functional
NCI-H460 [27] = experiment: Induction of apoptosis in human NCI-H460 cells with high-OXPHOS harboring KRAS Q61H mutant assessed as early apoptotic cells at 20 nM incubated for 72 hrs by Annexin V-FITC/propidium iodide staining based flow cytometry analysis (reference value: 1.95%); assay type: functional
A549 [28] = experiment: Induction of apoptosis in human Trametinib-resistant A549 cells with high-OXPHOS harboring KRAS G12S mutant assessed as early apoptotic cells at 20 nM incubated for 72 hrs in presence of trametinib by Annexin V-FITC/propidium iodide staining based flow cytometry analysis (reference value: 4.31%); assay type: functional

IC50 (NCI-H441 [6]): 29.7 nM | IC50 (Cytochrome P450 1A2): > 50 µM | IC50 (Cytochrome P450 2D6): > 50 µM | Tmax [11]: 4.8 min | Cmax [12]: 425 ng/mL | AUC(0-t) at 24 h [13]: 337 ng·h/mL | Vd [14]: 9.34 L/kg | MRT last at 24 h [15]: 3 h | half-life [16]: 150 min | bioavailability [17]: 64.3%
Compound: Cc1c(C(=O)N2CCN(Cc3ccc(OCC(F)(F)F)cc3)CC2)nnn1Cc1ccc(C(=O)Nc2ccc(C(F)(F)F)cc2)nc1
inhibition (A549 [1]): Active | inhibition (A549 [2]): Active | inhibition (A549 [3]): Active | inhibition (NCI-H460 [4]): 77.6% | inhibition (NCI-H460 [5]): 87.5% | inhibition (NCI-H460 [7]): Dose-Dependent Effect | inhibition (NCI-H441 [8]): Dose-Dependent Effect | inhibition (NCI-H441 [9]): Dose-Dependent Effect | inhibition (NCI-H441 [10]): Dose-Dependent Effect | inhibition (NCI-H460 [18]): Active | Activity (NCI-H460 [19]): Active | Activity [20]: Non-Toxic | Activity [21]: Non-Toxic | Activity [22]: Non-Toxic | IC50 at 5 days [23]: > 10 µM | IC50 at 5 days [24]: > 10 µM | Activity (NCI-H460 [25]): 7.08% | Activity (NCI-H460 [26]): 37.8% | Activity (NCI-H460 [27]): 2.87% | Activity (A549 [28]): 31%
